Experimental data reported in patent publication US10053422B2, “Compounds for the treatment of mTOR pathway related diseases” (Pitney Pharmaceuticals Pty Limited, priority 2012, dated 2018).
Entries after “also recorded” stand apart in the source; their conditions may differ. Where two headings read alike, the source gives them in different places. Values belong to the compound of their own block, whether it stands above or below them.

Legend:
A2780 cells = assay: SRB cell proliferation assay, A2780; type: cell-based, human
Procedure: (§1) Cell proliferation was assessed using the sulforhodamine B (SRB) assay. Cells seeded in 96-well plate (2,000-3,000 cell/well) were treated with MPL (0, 1, 5, 10, 25, 50 and 100 μmol/L) for 72 h. Cells were then fixed, washed and stained with 100 μl of 0.4% (w/v) SRB dissolved in 1% acetic acid. Unbound dye was removed by five washes with 1% acetic acid before air drying. Bound SRB was solubilized with 100 μl of 10 mM Tris base (pH 10.5) and the absorbance read at 570 nm. Exactly the same procedure was used to assess MPL-SO2. Both agents were dissolved in ethanol and diluted with media to give the final concentrations required for cell culture assays.

[1] = test system: CHO (Chinese hamster ovarian cells); assay: SRB cell proliferation assay, CHO; type: cell-based; conditions: Cricetulus griseus
Procedure: as §1

[2] = test system: HUVEC (human umbilical vein endothelial cells); assay: SRB cell proliferation assay, HUVEC; type: cell-based
Procedure: as §1

OVCAR-3 cells = assay: SRB cell proliferation assay, OVCAR-3; type: cell-based, human
Procedure: as §1

nematodes = conditions: previously shown; cited from earlier work
1A9 cells = assay: SRB cell proliferation assay, 1A9; type: cell-based; conditions: Homo sapiens
Procedure: as §1

[3] = test system: HT-29 5m11 cells (colorectal cancer); assay: SRB cell proliferation assay, HT-29 5m11; type: cell-based; conditions: Homo sapiens; HT-29 5m11, colorectal cancer (Table 2); read-out: IC50 in suppressing proliferation
Procedure: as §1

[4] = test system: HCT-116 cells (colorectal cancer); assay: SRB cell proliferation assay, HCT-116; type: cell-based; conditions: Homo sapiens; HCT-116, colorectal cancer (Table 2); read-out: IC50 in suppressing proliferation
Procedure: as §1

IGROV-1 cells = assay: SRB cell proliferation assay, IGROV-1; type: cell-based; conditions: Homo sapiens; IGROV-1, ovarian cancer (Table 2); read-out: IC50 in suppressing proliferation
Procedure: as §1

U87 cells (glioblastoma) = assay: SRB cell proliferation assay, U87; type: cell-based; conditions: Homo sapiens, U-87 MG
Procedure: as §1

HaCat keratinocyte = assay: SRB cell proliferation assay, HaCat; type: cell-based; conditions: Homo sapiens, keratinocyte (Table 2), read-out: IC50 in suppressing proliferation
Procedure: as §1

LN-18 cells (glioma) = assay: SRB cell proliferation assay, LN-18; type: cell-based; conditions: Homo sapiens; LN-18, glioma (Table 2); read-out: IC50 in suppressing proliferation
Procedure: as §1

T98G cells (glioma) = assay: SRB cell proliferation assay, T98G; type: cell-based; conditions: Homo sapiens, glioma (Table 2), read-out: IC50 in suppressing proliferation
Procedure: as §1

T47-D cells = assay: SRB cell proliferation assay, T47-D; type: cell-based; conditions: Homo sapiens, T47D, breast cancer (Table 2), read-out: IC50 in suppressing proliferation
Procedure: as §1

3T3 fibroblast = assay: SRB cell proliferation assay, 3T3; type: cell-based; conditions: 3T3, fibroblast (Table 2); read-out: IC50 in suppressing proliferation
Procedure: as §1

MDA-MB-231 cells = assay: SRB cell proliferation assay, MDA-MB-231; type: cell-based; conditions: Homo sapiens
Procedure: as §1

U87 glioma cells = assay: Autophagy (vacuoles, LC3-II), U87; type: cell-based; conditions: U87 glioma cells
Text: Autophagy is a characteristic of mTOR inhibition.
Concentration-dependent conversion of LC3-I to LC3-II confirms the increasing phenomenon of autophagy in these cells.

HeLa cells = assay: SRB cell proliferation assay, HeLa; type: cell-based; conditions: Homo sapiens, epithelial (adenocarcinoma) (Table 2), read-out: IC50 in suppressing proliferation
Procedure: as §1

cancer cell lines = assay: SRB cell proliferation assay, range of cancer cell lines (general statements); type: cell-based
Procedure: as §1
In brief, MPL and MPL-SO2 were tested in vitro against a wide range of cancer cell-lines with extensively different disease characteristics. For further detailed studies, human ovarian cancer cell lines OVCAR-3 and A2780 were chosen. Additionally, normal human ovarian surface epithelial cells (HOSE) and were cultured in the presence of MPL (0, 5, 10, 25, 50 and 100 μM) for 72 h. Cell viability was assessed using Trypan blue assay (FIG. 9). Similarly, effect of MPL on the growth of normal epithelial, endothelial, embryonic and fetal cells were investigated (FIG. 10) while cell proliferation was assessed using the SRB assay (FIG. 11). Control (vehicle treated) cells were taken to present 100% proliferation and the MPL treated groups are expressed as percentage of control±SEM. Each drug concentration was tested in quadruplicate and each experiment was repeated at least twice. For statistical comparisons, each drug treated group is compared to the control group using Student's t test. To examine concentration dependent drug effect, analysis of variance (ANOVA) was used. P values are: *=<0.05; **<0.01 and ***=<0.001, **** p<0.0001. […] In order to find out if the MPL effect is mediated through the nicotinic acetyl choline receptor and in particular the nACHR7 subtype, cells were pretreated with antagonists and then exposed to MPL (FIG. 12).

SKOV-3 cells = assay: SRB cell proliferation assay, SKOV-3; type: cell-based; conditions: Homo sapiens, SK-OV-3
Procedure: as §1

[5] = test system: HT-29 cells (colorectal cancer); assay: SRB cell proliferation assay, HT-29; type: cell-based; conditions: Homo sapiens; HT-29, colorectal cancer (Table 2); read-out: IC50 in suppressing proliferation
Procedure: as §1

MCF-7 cells = assay: SRB cell proliferation assay, MCF-7; type: cell-based; conditions: Homo sapiens, MCF7
Procedure: as §1

[6] = A2780, human epithelial ovarian cancer (Table 3), read-out: IC50 μM A2780
[7] = CHO = Chinese hamster ovarian cells (Table 3), read-out: IC50 μM CHO
[8] = HUVEC = human umbilical vein endothelial cells (Table 3), read-out: IC50 μM HUVEC
[9] = OVCAR-3, human epithelial ovarian cancer (Table 3), read-out: IC50 μM OVCAR-3

Structure (SMILES): CC(C#N)(COc1cc(F)c(F)cc1Br)NC(=O)c1ccc(OC(F)(F)F)cc1 (stereo not shown) [AAD 1336]
IC50 (A2780 cells; [6]): 17 ± 1.2 µM | IC50 [1, 7]: 31.8 µM | IC50 [2, 8]: 61.3 µM | IC50 (OVCAR-3 cells; [9]): 14.7 ± 1.25 µM | ratio of IC50 values (normal cell/cancer cell) (OVCAR-3 cells; results of Table 3): particularly high activity

Structure (SMILES): CC(C#N)(COc1cc(F)c(F)cc1C(F)(F)F)NC(=O)c1ccc(OC(F)(F)F)cc1 (stereo not shown) [AAD 1470]
IC50 (A2780 cells; [6]): 19.5 ± 4.1 µM | IC50 [1, 7]: 32.2 µM | IC50 [2, 8]: 74 µM | IC50 (OVCAR-3 cells; [9]): 12.9 ± 0.3 µM | ratio of IC50 values (normal cell/cancer cell) (OVCAR-3 cells; results of Table 3): particularly high activity

Structure (SMILES): CC(C#N)(COc1cc(F)ccc1Cl)NC(=O)c1ccc(OC(F)(F)F)cc1 (stereo not shown) [AAD 004]
IC50 (A2780 cells; [6]): 27.3 ± 0.5 µM | IC50 [1, 7]: 57.3 µM | IC50 [2, 8]: 93 µM | IC50 (OVCAR-3 cells; [9]): 18.6 ± 2.4 µM

The next lines start with results.

IC50 (A2780 cells; [6]): 14.8 ± 0.45 µM | IC50 (OVCAR-3 cells; [9]): 8 ± 0.7 µM
Structure (SMILES): C[C@@](C#N)(COc1cc(C#N)ccc1C(F)(F)F)NC(=O)c1ccc(SC(F)(F)F)cc1 [AAD 2224, N-[(1R)-1-cyano-2-(5-cyano-2-trifluoromethyl-phenoxy)-1-methyl-ethyl]-4-trifluoromethylsulfanyl-benzamide]
IC50 [1, 7]: 23.4 µM | IC50 [2, 8]: 109 µM | potency of MPL-(R) compared with MPL-(S) (OVCAR-3 cells; results of Table 3): equipotent | ratio of IC50 values (normal cell/cancer cell) (OVCAR-3 cells; results of Table 3): particularly high activity | anthelmintic activity (nematodes): no anthelmintic activity

IC50 [3]: 21.7 µM | IC50 [4]: 22.5 ± 5.7 µM | IC50 (U87 cells (glioblastoma); U87, glioblastoma, 72 h, SRB assay (Table 1), read-out: IC50): 20.5 µM | IC50 (U87 cells (glioblastoma); U87, glioma (Table 2), read-out: IC50 in suppressing proliferation): 20.5 ± 1 µM | IC50 (A2780 cells; Homo sapiens, A2780, ovarian cancer (Table 2), read-out: IC50 in suppressing proliferation): 4.2 µM | IC50 (A2780 cells; Homo sapiens, A2780, ovarian cancer, 72 h, SRB assay (Table 1), read-out: IC50): 4.2 µM | IC50 (LN-18 cells (glioma)): 6.64 ± 0.71 µM | IC50 (T98G cells (glioma)): 25.4 ± 0.28 µM | IC50 (MDA-MB-231 cells; MDA-MB-231, breast cancer (Table 2), read-out: IC50 in suppressing proliferation): 21.6 µM | IC50 (MDA-MB-231 cells; MDA-MB-231, breast cancer, 72 h, SRB assay (Table 1), read-out: IC50): 23.6 µM | IC50 (HeLa cells): 18.2 ± 2.6 µM | IC50 (OVCAR-3 cells; Homo sapiens, OVCAR-3, ovarian cancer (Table 2), read-out: IC50 in suppressing proliferation): 5.5 ± 1.3 µM | IC50 (OVCAR-3 cells; Homo sapiens, OVCAR-3, ovarian cancer, 72 h in vitro treatment, SRB assay (Table 1), read-out: IC50): 5.5 µM | IC50 (SKOV-3 cells; SKOV-3, ovarian cancer (Table 2), read-out: IC50 in suppressing proliferation): 26 µM | IC50 (SKOV-3 cells; SKOV-3, ovarian cancer, 72 h, SRB assay (Table 1), read-out: IC50): 26 µM | IC50 [5]: 2.75 ± 0.7 µM | IC50 (MCF-7 cells; MCF-7, breast cancer (Table 2), read-out: IC50 in suppressing proliferation): 8 ± 0.7 µM | IC50 (MCF-7 cells; MCF-7, breast cancer, 72 h, SRB assay (Table 1), read-out: IC50): 7.3 µM
Structure (SMILES): C[C@](C#N)(COc1cc(C#N)ccc1C(F)(F)F)NC(=O)c1ccc(S(=O)(=O)C(F)(F)F)cc1 [MPL-SO2, monepantel sulphone]
IC50 (1A9 cells; 1A9, ovarian cancer (Table 2), read-out: IC50 in suppressing proliferation): 3.42 ± 0.1 µM | IC50 (1A9 cells; 1A9, ovarian cancer, 72 h, SRB assay (Table 1), read-out: IC50): 4.8 µM | IC50 (IGROV-1 cells): 4.4 ± 1.5 µM | IC50 (HaCat keratinocyte): 42.7 ± 8 µM | IC50 ([1]; CHO (Table 2), read-out: IC50 in suppressing proliferation): 73.7 ± 6 µM | IC50 ([1]; CHO, 72 h, SRB assay (Table 1), read-out: IC50): 73.7 µM | IC50 (T47-D cells): 10.2 ± 0.6 µM | IC50 (3T3 fibroblast): 11.2 ± 1.1 µM | formation of vacuoles (autophagy) (U87 glioma cells): formation of vacuoles | IC50 ([2]; Homo sapiens, HUVEC (Table 2), read-out: IC50 in suppressing proliferation): 47 µM | IC50 ([2]; Homo sapiens, HUVEC, 72 h, SRB assay (Table 1), read-out: IC50): 47.8 µM | viability of cancer cell-lines growing in culture (cancer cell lines): reduced viability | potency compared with MPL in suppressing cancer cell proliferation (cancer cell lines; SRB proliferation assay): as potent as MPL; also recorded: as effective as MPL
